# Experimental data from patent US20110039721A1, “METHOD FOR PREDICTION ABOUT CARCINOGENICITY OF SUBSTANCE IN RODENT” (Chemicals Evaluation and Research Institute, priority 2007, published 2011).
# Tests used:
# [1] = tested on: mRNA expressed from the genes (A) to (D) in rat liver; experiment: Behavior of genes (mRNA expression level, oligo-DNA microarray) in rat liver after 28-day oral administration; format: in vivo; conditions: for Behavior of gene caused by administration of chemical substance, Gene No. 4846 / Behavior of gene caused by administration of chemical substance, Gene No. 2026 / Behavior of gene caused by administration of chemical substance, Gene No. 4218 / Behavior of gene caused by administration of chemical substance, Gene No. 6182 / Behavior of gene caused by administration of chemical substance, Gene No. 5600: gene group (A); for Behavior of gene caused by administration of chemical substance, Gene No. 4846: Unigene No. Rn.144554; for Behavior of gene caused by administration of chemical substance, Gene No. 2026 / Behavior of gene caused by administration of chemical substance, Gene No. 4218: Unigene No. Rn.167075; for Behavior of gene caused by administration of chemical substance, Gene No. 6182: Unigene No. Rn.5834; for Behavior of gene caused by administration of chemical substance, Gene No. 5600: Unigene No. Rn.9836; for Behavior of gene caused by administration of chemical substance, Gene No. 1494 / Behavior of gene caused by administration of chemical substance, Gene No. 2045 / Behavior of gene caused by administration of chemical substance, Gene No. 2203: gene group (B); for Behavior of gene caused by administration of chemical substance, Gene No. 1494: Unigene No. Rn.1430; for Behavior of gene caused by administration of chemical substance, Gene No. 2045: Unigene No. Rn.19329; for Behavior of gene caused by administration of chemical substance, Gene No. 2203: Unigene No. Rn.21240; for Behavior of gene caused by administration of chemical substance, Gene No. 533 / Behavior of gene caused by administration of chemical substance, Gene No. 725 / Behavior of gene caused by administration of chemical substance, Gene No. 1163 / Behavior of gene caused by administration of chemical substance, Gene No. 4973 / Behavior of gene caused by administration of chemical substance, Gene No. 4095 / Behavior of gene caused by administration of chemical substance, Gene No. 1334 / Behavior of gene caused by administration of chemical substance, Gene No. 6620 / Behavior of gene caused by administration of chemical substance, Gene No. 6303 / Behavior of gene caused by administration of chemical substance, Gene No. 5878 / Behavior of gene caused by administration of chemical substance, Gene No. 1131 / Behavior of gene caused by administration of chemical substance, Gene No. 1562 / Behavior of gene caused by administration of chemical substance, Gene No. 1741 / Behavior of gene caused by administration of chemical substance, Gene No. 893 / Behavior of gene caused by administration of chemical substance, Gene No. 6026 / Behavior of gene caused by administration of chemical substance, Gene No. 154 / Behavior of gene caused by administration of chemical substance, Gene No. 1993 / Behavior of gene caused by administration of chemical substance, Gene No. 813 / Behavior of gene caused by administration of chemical substance, Gene No. 2494 / Behavior of gene caused by administration of chemical substance, Gene No. 2546 / Behavior of gene caused by administration of chemical substance, Gene No. 3776 / Behavior of gene caused by administration of chemical substance, Gene No. 3929 / Behavior of gene caused by administration of chemical substance, Gene No. 1119 / Behavior of gene caused by administration of chemical substance, Gene No. 6742 / Behavior of gene caused by administration of chemical substance, Gene No. 5634: gene group (C); for Behavior of gene caused by administration of chemical substance, Gene No. 533: Unigene No. Rn.106184; for Behavior of gene caused by administration of chemical substance, Gene No. 725: Unigene No. Rn.108075; for Behavior of gene caused by administration of chemical substance, Gene No. 1163: Unigene No. Rn.11766; for Behavior of gene caused by administration of chemical substance, Gene No. 4973: Unigene No. Rn.118529; for Behavior of gene caused by administration of chemical substance, Gene No. 4095: Unigene No. Rn.119024; for Behavior of gene caused by administration of chemical substance, Gene No. 1334 / Behavior of gene caused by administration of chemical substance, Gene No. 6620: Unigene No. Rn.120914; for Behavior of gene caused by administration of chemical substance, Gene No. 6303: Unigene No. Rn.123063; for Behavior of gene caused by administration of chemical substance, Gene No. 5878: Unigene No. Rn.143213; for Behavior of gene caused by administration of chemical substance, Gene No. 1131: Unigene No. Rn.144946; for Behavior of gene caused by administration of chemical substance, Gene No. 1562: Unigene No. Rn.14744; for Behavior of gene caused by administration of chemical substance, Gene No. 1741: Unigene No. Rn.1647; for Behavior of gene caused by administration of chemical substance, Gene No. 893: Unigene No. Rn.164817; for Behavior of gene caused by administration of chemical substance, Gene No. 6026: Unigene No. Rn.167685; for Behavior of gene caused by administration of chemical substance, Gene No. 154: Unigene No. Rn.185941; for Behavior of gene caused by administration of chemical substance, Gene No. 1993: Unigene No. Rn.18728; for Behavior of gene caused by administration of chemical substance, Gene No. 813: Unigene No. Rn.201760; for Behavior of gene caused by administration of chemical substance, Gene No. 2494: Unigene No. Rn.23969; for Behavior of gene caused by administration of chemical substance, Gene No. 2546: Unigene No. Rn.24561; for Behavior of gene caused by administration of chemical substance, Gene No. 3776: Unigene No. Rn.43232; for Behavior of gene caused by administration of chemical substance, Gene No. 3929: Unigene No. Rn.4620; for Behavior of gene caused by administration of chemical substance, Gene No. 1119: Unigene No. Rn.9757; for Behavior of gene caused by administration of chemical substance, Gene No. 6742: Unigene No. Rn.9779; for Behavior of gene caused by administration of chemical substance, Gene No. 5634: Unigene No. Rn.9862; for Behavior of gene caused by administration of chemical substance, Gene No. 5726: gene group (D), Unigene No. Rn.9939
# Summary of the method: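 Liver mRNA levels were compared with matched vehicle groups, with a shift of at least 1.5-fold up or down deemed significant unless its direction disagreed with other carcinogens. Test substances were dosed orally by gavage daily for 28 days to 5-week-old male F344 rats, four per group.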
# liver = conditions: classification of the substance (Cr+/Cr−); cited from earlier work
# rodent = conditions: classification of the substance (C+/C−); cited from earlier work
# [2] = classification of the substance (M+/M−); cited from earlier work
compound,measurement,setting,value
"Clc1ccc(Cl)cc1 [TS026, 1,4-Dichlorobenzene]","Behavior of gene caused by administration of chemical substance, Gene No. 4846",[1]; mRNA vs vehicle control group,−
same,"Behavior of gene caused by administration of chemical substance, Gene No. 2026",[1]; mRNA vs vehicle control group,−
same,"Behavior of gene caused by administration of chemical substance, Gene No. 4218",[1]; mRNA vs vehicle control group,−
same,"Behavior of gene caused by administration of chemical substance, Gene No. 6182",[1]; mRNA vs vehicle control group,−
same,"Behavior of gene caused by administration of chemical substance, Gene No. 5600",[1]; mRNA vs vehicle control group,−
same,"Behavior of gene caused by administration of chemical substance, Gene No. 1494",[1]; mRNA vs vehicle control group,+
same,"Behavior of gene caused by administration of chemical substance, Gene No. 2045",[1]; mRNA vs vehicle control group,−
same,"Behavior of gene caused by administration of chemical substance, Gene No. 2203",[1]; mRNA vs vehicle control group,−
same,"Behavior of gene caused by administration of chemical substance, Gene No. 533",[1]; mRNA vs vehicle control group,+
same,"Behavior of gene caused by administration of chemical substance, Gene No. 725",[1]; mRNA vs vehicle control group,−
same,"Behavior of gene caused by administration of chemical substance, Gene No. 1163",[1]; mRNA vs vehicle control group,−
same,"Behavior of gene caused by administration of chemical substance, Gene No. 4973",[1]; mRNA vs vehicle control group,−
same,"Behavior of gene caused by administration of chemical substance, Gene No. 4095",[1]; mRNA vs vehicle control group,+
same,"Behavior of gene caused by administration of chemical substance, Gene No. 1334",[1]; mRNA vs vehicle control group,−
same,"Behavior of gene caused by administration of chemical substance, Gene No. 6620",[1]; mRNA vs vehicle control group,−
same,"Behavior of gene caused by administration of chemical substance, Gene No. 6303",[1]; mRNA vs vehicle control group,+
same,"Behavior of gene caused by administration of chemical substance, Gene No. 5878",[1]; mRNA vs vehicle control group,−
same,"Behavior of gene caused by administration of chemical substance, Gene No. 1131",[1]; mRNA vs vehicle control group,−
same,"Behavior of gene caused by administration of chemical substance, Gene No. 1562",[1]; mRNA vs vehicle control group,−
same,"Behavior of gene caused by administration of chemical substance, Gene No. 1741",[1]; mRNA vs vehicle control group,−
same,"Behavior of gene caused by administration of chemical substance, Gene No. 893",[1]; mRNA vs vehicle control group,−
same,"Behavior of gene caused by administration of chemical substance, Gene No. 6026",[1]; mRNA vs vehicle control group,+
same,"Behavior of gene caused by administration of chemical substance, Gene No. 154",[1]; mRNA vs vehicle control group,−
same,"Behavior of gene caused by administration of chemical substance, Gene No. 1993",[1]; mRNA vs vehicle control group,−
same,"Behavior of gene caused by administration of chemical substance, Gene No. 813",[1]; mRNA vs vehicle control group,−
same,"Behavior of gene caused by administration of chemical substance, Gene No. 2494",[1]; mRNA vs vehicle control group,−
same,"Behavior of gene caused by administration of chemical substance, Gene No. 2546",[1]; mRNA vs vehicle control group,−
same,"Behavior of gene caused by administration of chemical substance, Gene No. 3776",[1]; mRNA vs vehicle control group,−
same,"Behavior of gene caused by administration of chemical substance, Gene No. 3929",[1]; mRNA vs vehicle control group,−
same,"Behavior of gene caused by administration of chemical substance, Gene No. 1119",[1]; mRNA vs vehicle control group,−
same,"Behavior of gene caused by administration of chemical substance, Gene No. 6742",[1]; mRNA vs vehicle control group,−
same,"Behavior of gene caused by administration of chemical substance, Gene No. 5634",[1]; mRNA vs vehicle control group,−
same,"Behavior of gene caused by administration of chemical substance, Gene No. 5726",[1]; mRNA vs vehicle control group,+
same,Liver carcinogenicity,liver,Cr−
same,Carcinogenicity,rodent,C+
same,Mutagenicity by Ames test,[2],M−
"Cl.ClCc1ccccn1 [TS033, 2-Chloromethylpyridine HCl]","Behavior of gene caused by administration of chemical substance, Gene No. 4846",[1],−
same,"Behavior of gene caused by administration of chemical substance, Gene No. 2026",[1],−
same,"Behavior of gene caused by administration of chemical substance, Gene No. 4218",[1],−
same,"Behavior of gene caused by administration of chemical substance, Gene No. 6182",[1],−
same,"Behavior of gene caused by administration of chemical substance, Gene No. 5600",[1],−
same,"Behavior of gene caused by administration of chemical substance, Gene No. 1494",[1],−
same,"Behavior of gene caused by administration of chemical substance, Gene No. 2045",[1],−
same,"Behavior of gene caused by administration of chemical substance, Gene No. 2203",[1],−
same,"Behavior of gene caused by administration of chemical substance, Gene No. 533",[1],−
same,"Behavior of gene caused by administration of chemical substance, Gene No. 725",[1],−
same,"Behavior of gene caused by administration of chemical substance, Gene No. 1163",[1],−
same,"Behavior of gene caused by administration of chemical substance, Gene No. 4973",[1],−
same,"Behavior of gene caused by administration of chemical substance, Gene No. 4095",[1],−
same,"Behavior of gene caused by administration of chemical substance, Gene No. 1334",[1],−
same,"Behavior of gene caused by administration of chemical substance, Gene No. 6620",[1],−
same,"Behavior of gene caused by administration of chemical substance, Gene No. 6303",[1],−
same,"Behavior of gene caused by administration of chemical substance, Gene No. 5878",[1],−
same,"Behavior of gene caused by administration of chemical substance, Gene No. 1131",[1],−
same,"Behavior of gene caused by administration of chemical substance, Gene No. 1562",[1],−
same,"Behavior of gene caused by administration of chemical substance, Gene No. 1741",[1],−
same,"Behavior of gene caused by administration of chemical substance, Gene No. 893",[1],−
same,"Behavior of gene caused by administration of chemical substance, Gene No. 6026",[1],−
same,"Behavior of gene caused by administration of chemical substance, Gene No. 154",[1],−
same,"Behavior of gene caused by administration of chemical substance, Gene No. 1993",[1],−
same,"Behavior of gene caused by administration of chemical substance, Gene No. 813",[1],−
same,"Behavior of gene caused by administration of chemical substance, Gene No. 2494",[1],−
same,"Behavior of gene caused by administration of chemical substance, Gene No. 2546",[1],−
same,"Behavior of gene caused by administration of chemical substance, Gene No. 3776",[1],−
same,"Behavior of gene caused by administration of chemical substance, Gene No. 3929",[1],−
same,"Behavior of gene caused by administration of chemical substance, Gene No. 1119",[1],−
same,"Behavior of gene caused by administration of chemical substance, Gene No. 6742",[1],−
same,"Behavior of gene caused by administration of chemical substance, Gene No. 5634",[1],−
same,"Behavior of gene caused by administration of chemical substance, Gene No. 5726",[1],−
same,Liver carcinogenicity,liver,Cr−
same,Carcinogenicity,rodent,C−
same,Mutagenicity by Ames test,[2],M+
